In PubChem BioAssay AID179 (DTP/NCI, 2004) one finds EC50, IC50 and outcome data, which are given here for 70 molecules.

The subject of the test is CEM cells HIV-1 protection, formazan growth assay. Kind of test: NCI AIDS Antiviral Assay. Particulars: for IC50: measured here: growth of uninfected CEM cells. In short, it runs like this:
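Protection of CEM cells against HIV-1 was scored from cell growth (soluble formazan) across five concentrations, with parallel uninfected cells. Lack of protection may reflect toxicity.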

Each structure is given as a SMILES string. “And” between values parts separate entries of the source, which are not always exact repeats. Equal entries are not always repeated. The source made the active and inactive calls.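 Rule for the calls: active = compounds giving half or more protection of infected cells from virus-caused growth loss, again on retest; inactive = the rest.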

Regarding `CN(C(=O)c1cc2c(s1)sc1c(=O)n(C)c3ccccc3c12)c1ccccc1`, the EC50 is greater than 200 µM and the IC50 came out at 2.95 µM.
On the same counts, the results for `O=C1C2=C(/C=C/c3ccccc3)OCCC2=NN1c1ccccc1` are greater than 42.7 µM and 7.59 µM.
In the case of `C=C1[C@H]2C(=O)[C@H]3[C@@H]4N(C)C5CC3([C@@H]1OC(C)=O)[C@@H](C2OC(C)=O)C41[C@H](OC(C)=O)C(OC(=O)c2ccccc2)C[C@@](C)(C=O)[C@@H]51` (some centres undefined), the outcome was inactive.
Consider `O=C(O)c1cc(-c2ccccc2O)nc2ccccc12`, for which the EC50 is greater than 355 µM and the IC50 was 191 µM.
The like results for `C=C1C(=O)OC2C3C(C)=CC(=O)C3=C(C)CC[C@@H]12` (some centres undefined) were, in that order, greater than 30.9 µM and 2.04 µM.
The like results for `Cc1ccc(NC(=O)C(=O)C(C(=O)c2ccc3ccccc3c2)C2OC(=O)c3ccccc32)cc1C` (centres undefined) were, in that order, greater than 53.7 µM and 25.7 µM.
The like results for `O=C1OC(CC(=O)c2ccc(Cl)cc2Cl)C(Cl)=C1Cl` (centres undefined) were, in that order, greater than 148 µM and 53.7 µM.
With `CCCCc1ccc(Nc2nc3c(ncn3C3CC(O)C(CN=[N+]=[N-])O3)c(=O)[nH]2)cc1` (centres undefined), the EC50 is greater than 200 µM and the IC50 is greater than 200 µM.
Turning to `O=C(O[C@@H]1C(=O)N2CC[C@H]3OC(O)[C@@H]1[C@H]32)c1ccc([N+](=O)[O-])cc1` (some centres undefined), the EC50 was greater than 200 µM and the IC50 was greater than 200 µM.
Regarding `O=C(O)C1Cc2[nH]c3ccccc3c2C2CCCC12` (centres undefined), the EC50 was greater than 708 µM and the IC50 was found to be 363 µM.
With `Cc1cc(-c2cccs2)oc(=O)c1NC(=O)c1cnccn1`, the EC50 was greater than 200 µM and the IC50 is greater than 200 µM.
For the molecule `CCCCCCCCCCCCCCCCCC(=O)OC[C@H](COP(=O)(O)OCCNC(=O)CCC(=O)OCCC=C(c1cc(Cl)c(OC)c(C(=O)OC)c1)c1cc(Cl)c(OC)c(C(=O)OC)c1)OC(=O)CCCCCCCCCCCCCCCCC`, the EC50 was greater than 100 µM and the IC50 was greater than 100 µM.
Molecule `COC(=O)COc1ccc([As](=O)(O)O)cc1` returned a concentration for a half-maximal effect (EC50) greater than 200 µM and an IC50 greater than 200 µM.
As to `CSc1ccc(/C=N\C(=N)SN)cc1C`, the EC50 is greater than 200 µM and the IC50 turned out to be 18.6 µM.
On the same counts, the results for `O=Cc1c(O)c(C(=O)Nc2ccc3[nH]c(=O)[nH]c3c2)cc2ccccc12` are greater than 38.9 µM and greater than 38.9 µM.
Consider `CN(C)/C(N)=N/C(N)=S`, for which the result was inactive.
For the molecule `CCc1n[nH]c(=O)n1NC(=O)/C=C\C(=O)O`, the EC50 was greater than 200 µM and the half-inhibitory concentration (IC50) was greater than 200 µM.
With `O=C(NNC(=S)NCc1ccccc1)c1csc(NC(=S)NC2CCCCC2)n1`, the EC50 was greater than 200 µM and the concentration for half-maximal inhibition (IC50) came to 57.5 µM.
In the case of `Cc1ccc(S(=O)(=O)NC(=O)n2ccnc2C)cc1`, the EC50 is greater than 891 µM.
`CC(NC(=O)C(C)C(=O)Nc1ccc(C(F)(F)F)cc1)C(N)=O` (centres undefined): the EC50 is greater than 200 µM and the IC50 was greater than 200 µM.
As to `CN(C)CC(=O)C1C(=O)N(C)c2ccccc21` (centres undefined), the EC50 was greater than 200 µM and the IC50 was greater than 200 µM.
Regarding `Nc1[nH]c(=S)nc2nc3c4ccccc4c4ccccc4c3nc12`, the EC50 is greater than 200 µM and the IC50 is greater than 200 µM.
Turning to `O=C(c1ccccc1)c1ccc2cccc(OC3OC(CO)C(O)C(O)C3O)c2n1` (centres undefined), the EC50 is greater than 603 µM and the IC50 was 316 µM.
The like results for `C/C(=N\N=C(/[Se])N1CCCCCC1)c1ccccn1` were, in that order, greater than 81.3 µM and 0.107 µM.
In the case of `CCS(=O)(=O)c1cc(=O)[nH]c(=O)[nH]1`, the EC50 is 100 µM and the IC50 is 240 µM.
Take `COc1nc2c(c(=O)n1C)N=C(c1ccc(Cl)cc1)CC(c1ccccc1)N2` (centres undefined): the EC50 is greater than 200 µM and the IC50 was found to be 30.9 µM.
For the molecule `O=C1CC[C@H]2CO[C@H](c3ccccc3)N12`, the EC50 is greater than 200 µM and the IC50 is greater than 200 µM.
`NC(=S)NN=C1CSSC1`: the EC50 is greater than 200 µM and the concentration for half-maximal inhibition (IC50) is 11.7 µM.
On the same counts, the results for `Cc1ccc(Nc2nc(C)c(C(=O)CC(=O)C(=O)Nc3c(C)cccc3C(C)(C)C)s2)cc1` are greater than 200 µM and greater than 200 µM.
On the same counts, the results for `Cc1ccc(NC2=CC(=O)C(NO)c3ccccc32)cc1` (centres undefined) are greater than 200 µM and 3.89 µM.
Regarding `Clc1ncnc2c1ncn2CCCCCCCCCCCCn1cnc2c(Cl)ncnc21`, the result was inactive.
In the case of `C=C1C(=O)C=C2C=C3C(=O)C(C)(C)C[C@]3(O)C12C` (some centres undefined), the EC50 is greater than 1020 µM and the IC50 was 0.389 µM.
Take `O=C(O)CCC(NC(=O)c1ccc(Nc2cnc3ccc(C(F)(F)F)cc3n2)cc1)C(=O)O` (centres undefined): the EC50 was greater than 200 µM and the IC50 is greater than 200 µM.
Regarding `CC(C)C1(O)C(c2ccccc2)=C(c2ccccc2)C(c2ccccc2)=C1c1ccccc1`, the result was inactive.
With `CC1C2=C(CCCC2=O)N(c2ccc(Cl)cc2)C2=C1C(=O)CCC2`, the EC50 was greater than 100 µM and the IC50 is greater than 100 µM.
For the molecule `Nc1ncnc2c1ncn2C1CCC(CO)OC1` (centres undefined), the EC50 is greater than 200 µM and the IC50 is greater than 200 µM.
As for `Clc1ccc(C=Nc2ccc(SSc3ccc(N=Cc4ccc(Cl)cc4)cc3)cc2)cc1`, the EC50 was greater than 200 µM and the half-inhibitory concentration (IC50) is 22.4 µM.
With `Cc1cccc(C(C)(C)C)c1NC(=O)CC1C(=O)Nc2ccccc2S1=O` (centres undefined), the result was inactive.
As for `CC12SC3(C)SC(C)(S1)SC(C)(S2)S3`, the EC50 was greater than 44.7 µM and the IC50 turned out to be 33.1 µM.
On the same counts, the results for `O=C1NC(Cc2ccccc2)C(=O)N2CCCC12` (centres undefined) are greater than 1020 µM and greater than 1020 µM.
Turning to `CC(C)NCCCC(C)Nc1ccnc2ccc3nn(C)nc3c12` (centres undefined), the EC50 was greater than 240 µM and the 50% inhibitory concentration (IC50) amounted to 53.7 µM.
In the case of `COc1ccccc1C1=C2C(=O)N(C)C(c3ccccc3OC)=C2C(=O)N1C`, the EC50 is greater than 100 µM and the IC50 was greater than 100 µM.
In the case of `COc1ccc(N2C(=O)C3c4[nH]c5ccc(OC)cc5c4C4CCC(C(C)C)CC4C3C2=O)cc1` (centres undefined), the EC50 was greater than 50.1 µM and the IC50 is greater than 50.1 µM.
Turning to `[N-]=[N+]=Nc1ccccc1-[n+]1noc([O-])c1Br`, the EC50 is greater than 457 µM and the 50% inhibitory concentration (IC50) is greater than 457 µM.
As to `Clc1ccc(-c2c(C3=NCCN3)nnn2-c2ccc(Cl)cc2)cc1`, the EC50 was greater than 138 µM and the IC50 was determined as 115 µM.
On the same counts, the results for `N#CCN1CCCN(CC#N)CCN(CC#N)CCCN(CC#N)CC1` are greater than 200 µM and 141 µM.
Turning to `C/C=C1\Oc2ccc(OC)cc2S1(=O)=O`, the EC50 was 17 µM and the IC50 is 31.6 µM.
On the same counts, the results for `CN(C)CCC(=O)N1C/C(=C\c2ccc(Cl)c(Cl)c2)C(=O)/C(=C/c2ccc(Cl)c(Cl)c2)C1` are greater than 33.9 µM and 0.0437 µM.
Consider `CC1=C(CC/C(C)=C/CCC2(C)CCC([C@H](C)C(=O)O)OO2)C(C)(C)CCC1` (some centres undefined) (tested in a mixture with another compound), for which the outcome was inactive.
For the molecule `CCOC(=O)Cn1sc2ncc([N+](=O)[O-])cc2c1=O`, the 50% effective concentration (EC50) was greater than 13.5 µM and the concentration for half-maximal inhibition (IC50) came out at 8.91 µM.
Consider `O=C(/C=C/C(=O)N/N=C/c1cc(S(=O)(=O)O)c2cccnc2c1O)N/N=C/c1cc(S(=O)(=O)O)c2cccnc2c1O`, for which the EC50 was 178 µM and the half-maximal inhibitory concentration (IC50) was greater than 200 µM.
On the same counts, the results for `CNc1nc2c(C)ccc3[nH]c(N(C)C)nc3c-2n1` are greater than 759 µM and 50.1 µM.
On the same counts, the results for `COc1cc(C(CC(C)=O)c2cc3c(cc2OC(C)=O)OCO3)cc(OC)c1OC` (centres undefined) (tested in a mixture with another compound) are greater than 105 µM and 0.135 µM.
On the same counts, the results for `COC(=O)c1c2n(c3ccccc13)C[C@H]1OC(C)(C)O[C@@H]21` are greater than 200 µM and 126 µM.
In the case of `Cc1nc2ccccc2n(CC2CCCN3CCCC[C@H]23)c1=O` (some centres undefined), the EC50 is greater than 200 µM and the IC50 is greater than 200 µM.
Take `CCN(CC)c1ccc2c(c1)Oc1ccc(N(CC)CC)cc1C21Oc2ccccc2-c2c1c1ccccc1n2CC` (centres undefined): the outcome was inactive.
Regarding `COc1cc(CC2Cc3cccc(=O)c(O)c3C(=O)O2)cc(OC)c1OC` (centres undefined), the EC50 was greater than 120 µM and the IC50 came out at 17.4 µM.
In the case of `CC(=O)[C@H]1CC[C@H]2[C@@H]3CCC4=CC(=O)CC[C@]4(C)[C@H]3CC[C@]12C`, the EC50 was greater than 200 µM; the IC50 is 85.1 µM and 91.2 µM.
For `O=C(Nc1ccc(Cl)cc1C(F)(F)F)C(=O)C1CCCS1(=O)=O` (centres undefined), the result was inactive.
`CC(=O)OCC1OC(n2cc(C)c(-n3cncn3)nc2=O)CC1N=[N+]=[N-]` (centres undefined): the EC50 is greater than 200 µM and the IC50 was determined as 11.5 µM.
For the molecule `O=C(N/C(=C\c1ccc([N+](=O)[O-])cc1)c1nc2[nH]c(=S)[nH]c(=O)c2[nH]1)c1ccccc1`, the outcome was inactive.
As to `S=C(S)N1CCN(c2ccc(Cl)c(Cl)c2)CC1`, the EC50 was greater than 200 µM and the IC50 worked out at 26.9 µM.
For `COc1c(O)cc2oc(-c3ccc(O)cc3)cc(=O)c2c1O`, the EC50 was greater than 148 µM and the IC50 stood at 35.5 µM.
On the same counts, the results for `CNC(=O)OCCOc1ccccc1` are greater than 200 µM and greater than 200 µM.
On to `Cc1cccc(C)c1NC(=O)CCCC(=O)C1/C(=N/NC(=O)CC#N)CCC/C1=N\NC(=O)CC#N` (centres undefined), for which the EC50 is greater than 72.4 µM and the IC50 is greater than 72.4 µM.
On to `CCCCNCCCNCCCNC(=O)c1csc(-c2csc(CCNC(=O)C(NC(=O)C(C)C(O)C(C)NC(=O)C(NC(=O)c3nc(C(CC(N)=O)NCC(N)C(N)=O)nc(N)c3C)C(OC3OC(CO)C(O)C(O)C3OC3OC(CO)C(O)C(OC(N)=O)C3O)c3cnc[nH]3)C(C)O)n2)n1` (centres undefined), for which the outcome was inactive.
Regarding `COc1ccccc1/C=C1\C=Cc2ccccc21`, the EC50 is greater than 204 µM and the IC50 is 31.6 µM.
Consider `Cc1cccc(NC(=O)Nc2ccccc2)n1`, for which the EC50 is greater than 200 µM and the IC50 was found to be 97.7 µM.
On the same counts, the results for `CC(O)C(NC(=O)c1ccccc1)C(=O)N(Cc1ccccc1)Cc1ccccc1` (centres undefined) are greater than 17.8 µM and greater than 17.8 µM.
On the same counts, the results for `O=[N+]([O-])c1ccc2oc(=Nc3ccccc3)c(Nc3ccccc3)nc2c1` are greater than 200 µM and 166 µM.
